Legend:
[1] = molecular target: DNP-stimulatedATPase activity of rat liver mitochondria; details: Koenig et al. 1993, read-out: IC50, DNP-stimulated ATPase activity; cited from earlier work
[2] = molecular target: DNP-stimulatedATPase activity of rat liver mitoplast; details: Koenig et al. 1993, read-out: IC50, DNP-stimulated ATPase activity; cited from earlier work
HIV Integrase = HIV Integrase (Human immunodeficiency virus type 1 group M subtype B, UniProt P04585); test: Assay for Inhibition of Strand Transfer by HIV Integrase; type: biochemical
Experimental: Assay for Inhibition of Strand Transfer by HIV Integrase
Inhibition of strand transfer was conducted according to Hazuda, D. J. et al. Nucleic Acids Res., 22, 1121 (1994), hereby incorporated by reference for these purposes.

For `CC=CC1C=CC2CC(C)CCC2C1(C)C(O)=C1C(=O)C(CO)N(C)C1=O` (centres unmarked) [Compound A, equisetin], the IC50 [1] is listed as ~0.008 µM, the IC50 [2] is listed as ~0.008 µM and the IC50 (HIV Integrase) is listed as 7 µM.

Work on `CCCCCC1C(C)=CC2CC(C)CCC2C1(C)C(O)=C1C(=O)C(CO)N(C)C1=O` (centres unmarked) [Compound C] yielded an IC50 (HIV Integrase) of 5 µM.

`CC=CC=CC1C(C)=CC2CC(C)CCC2C1(C)C(O)=C1C(=O)C(CO)N(C)C1=O` (centres unmarked) [Compound B] showed an IC50 (HIV Integrase) of 11 µM.

Reference: patent US5759842A, “In vitro HIV integrase inhibitors” (Merck & Co., Inc., priority 1996, dated 1998)
